Laboratory results from US9670482B2, “Multispecific peptides” (BICYCLE THERAPEUTICS LIMITED, priority 2009, dated 2017).
One block for each molecule: values may come before it. Residues, ends and D or L forms follow the SMILES beside them.

Experiments:
[1] = target: T1, Kallikrein (Homo sapiens, UniProt P03952); experiment: Kallikrein assays (Z-Phe-Arg-amc substrate); format: biochemical; conditions: IC50 for inhibition of kallikrein activity, 0.1 nM kallikrein, 100 μM substrate, 30° C.
T1 construct: purchased Sigma Aldrich
T1 sequence (P03952 20-638): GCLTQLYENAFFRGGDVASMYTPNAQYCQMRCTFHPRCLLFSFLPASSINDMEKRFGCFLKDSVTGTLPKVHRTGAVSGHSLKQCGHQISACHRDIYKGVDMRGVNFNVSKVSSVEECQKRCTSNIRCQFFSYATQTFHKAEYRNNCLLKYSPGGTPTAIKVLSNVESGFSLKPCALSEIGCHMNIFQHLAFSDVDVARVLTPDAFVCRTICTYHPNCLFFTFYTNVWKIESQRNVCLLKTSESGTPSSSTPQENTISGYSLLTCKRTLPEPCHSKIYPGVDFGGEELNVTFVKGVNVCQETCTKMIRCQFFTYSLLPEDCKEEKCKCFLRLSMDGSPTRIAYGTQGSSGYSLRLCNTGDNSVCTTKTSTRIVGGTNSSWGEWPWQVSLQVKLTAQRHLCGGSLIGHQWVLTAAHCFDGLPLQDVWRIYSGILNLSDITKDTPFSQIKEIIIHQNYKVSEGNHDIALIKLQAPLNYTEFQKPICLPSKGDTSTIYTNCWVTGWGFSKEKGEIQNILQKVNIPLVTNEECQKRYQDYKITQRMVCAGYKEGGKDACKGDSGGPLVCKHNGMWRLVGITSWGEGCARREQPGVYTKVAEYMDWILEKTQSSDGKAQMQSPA
Method: Enzymes were purchased from Sigma Aldrich and substrates from Bachem A G. The assay buffer is composed of 10 mM Tris pH 7.4, 150 mM NaCl, 10 mM MgCl2, 1 mM CaCl2, 0.1% BSA, 0.01% Triton X100 and 5% DMSO. Enzymes are incubated with inhibitors for 30 minutes at RT prior to addition of substrate. All experiments were recorded at 30° C. for 90 minutes.
Assays were performed on a BMG Pherastar plate reader at wavelengths of exc/em 350/450 nm. Kallikrein was bought as a solution of 1080 μg/mL and diluted to a working concentration of 0.3 nM in assay buffer. Substrate Z-Phe-Arg-amc was solubilised at the stock concentration of 10 mM in DMSO and diluted to a working concentration of 300 μM with assay buffer. Inhibitors were solubilised in assay buffer to a stock concentration of 60 μM. 50 μL of each reagent is introduced in wells for a final volume of 150 μL per well. Final concentration of kallikrein in assay is 0.1 nM and substrate is 100 μM.
Final concentrations of inhibitors were: 0.5 nM, 1 nM, 2 nM, 5 nM, 8 nM, 10 nM, 20 nM, 50 nM, 80 nM, 100 nM, 200 nM, 500 nM, 800 nM, 1 μM, 2 μM, 5 μM, 8 μM, 10 μM and 20 μM. The initial rate of the reaction is obtained by plotting fluorescence=f (time) data and by fitting a linear trendline for each concentration of inhibitor. The inhibition curves are obtained by plotting initial rate=f ([I]) and IC50 values can be evaluated.

[2] = target: bovine serum albumin (BSA) (Bos taurus, UniProt P02769); experiment: Fluorescence anisotropy titration with BSA; conditions: for binding to BSA (change in anisotropy): titration with BSA, FIG. 4
bovine serum albumin (BSA), sequence (P02769 25-607): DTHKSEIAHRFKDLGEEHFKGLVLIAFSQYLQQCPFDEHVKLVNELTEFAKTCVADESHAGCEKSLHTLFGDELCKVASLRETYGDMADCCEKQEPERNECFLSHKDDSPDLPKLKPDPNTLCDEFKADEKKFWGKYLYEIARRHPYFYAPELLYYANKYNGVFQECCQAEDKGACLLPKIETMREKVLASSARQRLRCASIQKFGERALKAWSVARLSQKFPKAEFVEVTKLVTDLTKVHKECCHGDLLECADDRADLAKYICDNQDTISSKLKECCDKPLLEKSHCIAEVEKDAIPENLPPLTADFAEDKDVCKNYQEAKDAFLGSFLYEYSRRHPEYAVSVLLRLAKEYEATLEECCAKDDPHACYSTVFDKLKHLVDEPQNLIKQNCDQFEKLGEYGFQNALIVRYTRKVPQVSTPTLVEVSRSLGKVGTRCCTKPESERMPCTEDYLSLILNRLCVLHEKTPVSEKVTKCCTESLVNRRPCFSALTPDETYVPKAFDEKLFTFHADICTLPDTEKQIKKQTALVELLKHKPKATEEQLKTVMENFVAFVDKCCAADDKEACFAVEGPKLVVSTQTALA
Excerpt: For determining the affinity constant (Kd) of a fluorophore to target protein, we chose fluorescence anisotropy titrations.
Excitation was specific for coumarin (328 nm), and emission at 393 nm.
To determine whether a neighbouring group (here, Gly) on Fmoc affects binding to BSA, a similar experiment was run with Fmoc-Gly-OH (Nova Biochem). The intrinsic fluorescing properties of Fmoc were used for the anisotropy experiments.
To determine whether a neighbouring hydrophobic bulky group has an enhancing or adverse effect on BSA binding, Fmoc-Phe-OH was tested as above.
The solid phase resin employed was PAL-PEG-PS from Applied Biosystems. […] All peptides were capped with an N-terminal Fmoc, and a C-terminal amide (NH2). After cleavage, peptides were lyophilised, and solubilised in 5 mL of DMF. 100 μl of this was loaded onto an analytical C18 column using a Waters HPLC, using methanol and water (both in the presence of 0.1% TFA) as solvents. […] The peptide concentration in the cuvette was 200 nM.
Excitation was at 299 nm (to minimise Trp absorption), and emission at 320 nm. Slit widths were at 5 and 12 nm, respectively.
Peptide concentrations were estimated by the absorbance at 299 nm, using the extinction coefficient of 4700/M/cm. Excitation was at 299 nm, and emission was set to 320 nm, at slit widths of 5 and 12 nm, respectively.

[3] = system: Chymotrypsin; experiment: Peptide conjugate digestion with Chymotrypsin; format: in vitro ADME; conditions: 37° C. for 1 hr
Method: (§1) Linear peptides (PK15 and CG4L1-PK15L1) were first treated with iodoacetamide prior to digestion studies. The peptides (ca 3-4 mg) were purified by HPLC (semi-prep Proteo column as described in general methods), and the HPLC fraction (ca 3 ml) was neutralised with an equal volume of 50 mM ammonium bicarbonate. […] The reaction mixture was concentrated (rotary evaporator) and re-purified by HPLC as above.
(§2) Peptides (linear and conjugates) were dissolved in water at a concentration of 1 mg/ml, giving an effective concentration of −0.5 mM stock solutions. 2 μl of peptide conjugates (˜30 μM in reactions depending on actual molecular weight) where dissolved in reaction buffer (see below) in a total reaction volume of 30 μl, followed by the protease, and samples were incubated at 37° C. for 1 hr. 10 μl aliquots were quenched into 20 μl of 10% dichloroacetic acid in MeCN/H2O (1:1) and stored at −20° C. for 30 minutes, centrifuged at 4° C. (13000 rpm) for 5 minutes and then spotted onto MALDI-TOF mass spectrometer plate for analysis.
(§3) All reactions at 37° C. Cathepsin G and kalikrein reactions were carried out in 10 mM Tris pH 7.4, 150 mM NaCl, 10 mM MgCl2, 1 mM CaCl2, 0.1% BSA, 0.01% Triton X100, 5% DMSO. Chymotrypsin reactions were carried out in 100 mM Tris pH 7.4, 10 mM CaCl2. Pronase and proteinase K reactions were carried out in 100 mM Tris pH 7.4, 0.5% SDS. Subtilisin reactions were carried out in 50 mM KH2PO4 pH 7.5. Trypsin reactions were carried out in 67 mM sodium phosphate pH 7.6. Reaction conditions with serum involve dissolving the peptide in 1×PBS (total volume 24 μl) and 6 μl of human serum added to the reaction.

[4] = system: Pronase; experiment: Peptide conjugate digestion with Pronase; format: in vitro ADME; design: key to the marks not given beside the values; conditions: 37° C. for 1 hr
Method: as §1, §2, §3

[5] = system: Subtilisin; experiment: Peptide conjugate digestion with Subtilisin; format: in vitro ADME; conditions: 37° C. for 1 hr
Method: as §1, §2, §3

[6] = target: T2, Cathepsin G (Homo sapiens, UniProt P08311); experiment: Peptide conjugate digestion with Cathepsin G; format: in vitro ADME; design: key to the marks not given beside the values; conditions: 37° C. for 1 hr
T2 sequence (P08311 21-244): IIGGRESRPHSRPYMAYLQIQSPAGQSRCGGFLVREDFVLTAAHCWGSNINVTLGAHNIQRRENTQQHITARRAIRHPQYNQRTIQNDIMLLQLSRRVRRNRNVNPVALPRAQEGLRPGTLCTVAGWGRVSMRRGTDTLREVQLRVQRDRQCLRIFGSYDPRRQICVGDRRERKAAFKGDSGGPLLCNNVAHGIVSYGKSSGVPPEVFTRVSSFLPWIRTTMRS
Method: as §1, §2, §3

[7] = target: Kalikrein (Homo sapiens, UniProt P03952); experiment: Peptide conjugate digestion with Kalikrein; format: in vitro ADME; design: digestion with Kalikrein: key to the marks not given beside the values; conditions: 37° C. for 1 hr
Kalikrein, sequence (P03952 20-638): as the sequence (P03952 20-638) above
Method: as §1, §2, §3

[8] = system: Trypsin; experiment: Peptide conjugate digestion with Trypsin; format: in vitro ADME; conditions: 37° C. for 1 hr
Method: as §1, §2, §3

Kd [2]: 340 nM
SMILES: COc1ccc2c(CC(=O)NCCCC[C@H](NC(=O)OCC3c4ccccc4-c4ccccc43)C(=O)O)cc(=O)oc2c1 [Fmoc-Lys-Mca]

Kd [2]: ~60 nM
fold tighter binding to BSA than Fmoc-FGSGD-NH2 [2]: 3 fold
SMILES: NC(=O)[C@H](CC(=O)O)NC(=O)CNC(=O)[C@H](CO)NC(=O)CNC(=O)[C@H](Cc1c[nH]c2ccccc12)NC(=O)OCC1c2ccccc2-c2ccccc21 [Fmoc-WGSGD-NH2] (HELM PEPTIDE1{[O=C(OCC1c2ccccc2-c2ccccc21)[*:2]].W.G.S.G.D.[am]}$$$$V2.0)

binding to BSA (change in anisotropy) [2]: no binding
SMILES: COc1ccc2c(CC(=O)NCCCCC(N)C(=O)O)cc(=O)oc2c1 (centres unmarked) [Lys-Mca]

binding to BSA (change in anisotropy) [2]: did not bind BSA
SMILES: COc1ccc2c(CC(=O)O)cc(=O)oc2c1 [Mca-OH]

Second part, the molecule before the results:

SMILES: CC[C@H](C)[C@@H]1NC(=O)[C@@H]2CSCc3cc4cc(c3)CSC[C@H](NC(=O)[C@H](CC(N)=O)NC(=O)[C@H](CCCNC(=N)N)NC(=O)[C@H](Cc3ccccc3)NC(=O)[C@H](CCCNC(=N)N)NC(=O)[C@H](CC(=O)O)NC(=O)[C@H](CO)NC(=O)[C@H](CSC4)NC(=O)[C@H](Cc3ccccc3)NC(=O)CNC(=O)[C@H](CC(C)C)NC(=O)[C@H](CC(=O)O)NC(=O)[C@H](Cc3ccccc3)NC1=O)C(=O)N1CCC[C@H]1C(=O)N[C@@H](C)C(=O)N[C@@H](CC(=O)O)C(=O)N[C@@H](CCC(=O)O)C(=O)N[C@@H](C)C(=O)N[C@@H](CC(C)C)C(=O)N2 [CG4L1-PK15L1-PK15L2 tricyclic] (HELM PEPTIDE1{A.D.E.A.L.C.I.F.D.L.G.F.C.S.D.R.F.R.N.C.P}|CHEM1{[c1c(C[*:1])cc(C[*:3])cc1C[*:2]]}$PEPTIDE1,CHEM1,6:R3-1:R1|PEPTIDE1,CHEM1,13:R3-1:R2|PEPTIDE1,CHEM1,20:R3-1:R3|PEPTIDE1,PEPTIDE1,1:R1-21:R2$$$V2.0)
IC50 [1]: 15000 nM

SMILES: NC(=O)[C@H](CC(=O)O)NC(=O)CNC(=O)[C@H](CO)NC(=O)CNC(=O)[C@H](Cc1ccccc1)NC(=O)OCC1c2ccccc2-c2ccccc21 [Fmoc-FGSGD-NH2] (HELM PEPTIDE1{[O=C(OCC1c2ccccc2-c2ccccc21)[*:2]].F.G.S.G.D.[am]}$$$$V2.0)
fold tighter binding to BSA than the glycine variant Fmoc-GGSGD-NH2 [2]: 8 fold

SMILES: O=C(O)CNC(=O)OCC1c2ccccc2-c2ccccc21 [Fmoc-Gly-OH]
Kd [2]: 420 nM

SMILES: CC[C@H](C)[C@@H]1NC(=O)[C@@H]2CSCc3cc(cc(c3)CSC[C@@H](C(=O)NCC(=O)O)NC(=O)[C@H](Cc3ccccc3)NC(=O)CNC(=O)[C@H](CC(C)C)NC(=O)[C@H](CC(=O)O)NC(=O)[C@H](Cc3ccccc3)NC1=O)CSC[C@H](NC(=O)[C@H](C)N)C(=O)N[C@@H](CO)C(=O)N[C@@H](CC(=O)O)C(=O)N[C@@H](CCCNC(=N)N)C(=O)N[C@@H](Cc1ccccc1)C(=O)N[C@@H](CCCNC(=N)N)C(=O)N[C@@H](CC(N)=O)C(=O)N2 [PK15L1-CG4L1 bicyclic] (HELM PEPTIDE1{A.C.S.D.R.F.R.N.C.I.F.D.L.G.F.C.G}|CHEM1{[c1c(C[*:1])cc(C[*:3])cc1C[*:2]]}$PEPTIDE1,CHEM1,2:R3-1:R1|PEPTIDE1,CHEM1,9:R3-1:R2|PEPTIDE1,CHEM1,16:R3-1:R3$$$V2.0)
IC50 [1]: 200 nM

SMILES: CC[C@H](C)[C@@H]1NC(=O)[C@@H](NC(=O)[C@H](CC(C)C)NC(=O)[C@H](C)N)CSCc2cc3cc(c2)CSC[C@@H](C(=O)N2CCC[C@H]2C(=O)N[C@@H](C)C(=O)N[C@@H](CC(=O)O)C(=O)N[C@@H](CCC(=O)O)C(=O)O)NC(=O)[C@H](CC(N)=O)NC(=O)[C@H](CCCNC(=N)N)NC(=O)[C@H](Cc2ccccc2)NC(=O)[C@H](CCCNC(=N)N)NC(=O)[C@H](CC(=O)O)NC(=O)[C@H](CO)NC(=O)[C@H](CSC3)NC(=O)[C@H](Cc2ccccc2)NC(=O)CNC(=O)[C@H](CC(C)C)NC(=O)[C@H](CC(=O)O)NC(=O)[C@H](Cc2ccccc2)NC1=O [X-CG4L1-PK15L1-Y bicyclic] (HELM PEPTIDE1{A.L.C.I.F.D.L.G.F.C.S.D.R.F.R.N.C.P.A.D.E}|CHEM1{[c1c(C[*:1])cc(C[*:3])cc1C[*:2]]}$PEPTIDE1,CHEM1,3:R3-1:R1|PEPTIDE1,CHEM1,10:R3-1:R2|PEPTIDE1,CHEM1,17:R3-1:R3$$$V2.0)
digestion with Chymotrypsin ([3]; 0.01 μg enzyme per reaction): +++
digestion with Chymotrypsin ([3]; 10 μg enzyme per reaction): −
digestion with Pronase ([4]; 0.01 μg enzyme per reaction): +++
digestion with Pronase ([4]; 0.1 μg enzyme per reaction): +++
digestion with Pronase ([4]; 1 μg enzyme per reaction): +++
digestion with Subtilisin ([5]; 0.009 μg enzyme per reaction): +++
digestion with Subtilisin ([5]; 9 μg enzyme per reaction): −
digestion with Cathepsin G ([6]; 0.01 μg enzyme per reaction): +++
digestion with Cathepsin G ([6]; 0.1 μg enzyme per reaction): +++
IC50 [1]: 15000 nM
digestion with Kalikrein ([7]; 0.01 μg enzyme per reaction): +++
digestion with Kalikrein ([7]; 0.1 μg enzyme per reaction): +++
digestion with Trypsin ([8]; 0.01 μg enzyme per reaction): +++
digestion with Trypsin ([8]; 10 μg enzyme per reaction): −
